Assay results: patent US7736537B1, “Replacement solvents having improved properties for refrigeration flushes” (Mainstream Engineering Corp., priority 2008, dated 2010)
Read-outs that look alike come from different tables or passages of the source.

Key:
[1] = solubility parameter, Table 1; cited from earlier work
[2] = Table 1; cited from earlier work
[3] = Text: Parameters such as the lethal dose 50 (LD50), lethal concentration 50 (LC50), cardiac sensitization, skin irritation, and mutagenicity (e.g., via the Ames test) can be used as toxicity metrics. The LDn or LCn abbreviations, where n is the percent lethality, are used for the dose of a toxicant lethal to n % of a test population. […] Cardiac sensitization is a measure of the ability of a compound to cause cardiac arrhythmia under stress.
The property modification components are chosen from a list of potential replacement solvents. These compounds included halogenated compounds such as halogenated acetates, alcohols, alkanes, cycloalkanes, alkenes, cycloalkenes, amines, anhydrides, aromatics, carbonyls, diones, esters, ethers, heterocyclics and ketones.

[4] = cardiac sensitization relative to CFC-113

SMILES | SP [1] | BP [2] [C.] | CS/CS113 [3, 4] | CS/CS113 [3]
FC(F)OC(Cl)C(F)(F)F (stereo not drawn) [1-chloro-2,2,2-trifluoroethyl difluoromethyl ether, reference compound] | 7.58 (cal/cm^3)^1/2 | 48.8 | 50.2 | 
COC(F)=C(C(F)(F)F)C(F)(F)F [1-methoxy-2-trifluoromethyl-1,3,3,3-tetrafluoro-1-propene] | 7.09 (cal/cm^3)^1/2 | 44.5 | 154.6 | 
FC1C(F)C(F)(F)C(F)(F)C(F)C1(F)F (stereo not drawn) [1H,2H,4H-nonafluorocyclohexane] | 7.02 (cal/cm^3)^1/2 | 65.0 | 18.5 | 
FC(F)=C(F)OC(F)(F)C(F)(F)Br [2-bromo-1,1,2,2-tetrafluoroethoxy-trifluoroethene] | 7.30 (cal/cm^3)^1/2 | 81.9 | 33.0 | 
C=C(Br)C(F)(F)C(F)(F)F [2-bromo-3,3,4,4,4-pentafluorobutene] | 7.19 (cal/cm^3)^1/2 | 66.1 | 10.5 | 
Fc1c(F)c(F)c(C(F)(F)F)c(Br)c1F [2-bromoheptafluorotoluene] | 7.64 (cal/cm^3)^1/2 | 151.3 | 21.5 | 
FC(F)OC(F)(F)C(F)Cl (stereo not drawn) [2-chloro-1,1,2-trifluoroethyl difluoromethyl ether, reference compound] | 7.71 (cal/cm^3)^1/2 | 56.7 |  | 35.5
CCOC(F)(F)C(F)Cl (stereo not drawn) [2-chloro-1,1,2-trifluoroethyl ethyl ether] | 7.50 (cal/cm^3)^1/2 | 88.9 | 15.0 | 
FC(C(F)C(F)(F)C(F)(F)F)C(F)(F)F (stereo not drawn) [2H,3H-decafluoropentane] | 6.84 (cal/cm^3)^1/2 | 55.0 | 91.5 | 
OCC(C(F)(F)F)(C(F)(F)F)C(F)(F)F [3,3,3-trifluoro-bis-2,2-(trifluoromethyl)-1-propanol] | 6.81 (cal/cm^3)^1/2 | 86.1 | 40.7 | 
FC(F)(F)C(F)(F)C(Cl)Cl [3,3-dichloro-1,1,1,2,2-pentafluoropropane] | 7.26 (cal/cm^3)^1/2 | 48.5 | 16.7 | 
FC(F)=C(F)C(F)(Br)C(F)(F)F (stereo not drawn) [3-bromo-1,1,2,3,4,4,4-heptafluorobutene] | 6.75 (cal/cm^3)^1/2 | 47.5 | 21.9 | 
FC=CC(F)(F)Br [3-bromo-1,3,3-trifluoropropene] | 7.73 (cal/cm^3)^1/2 | 41.5 | 12.9 | 
C=C(F)C(F)(F)Br [3-bromo-2,3,3-trifluoropropene] | 7.66 (cal/cm^3)^1/2 | 41.6 | 6.1 | 
C=C(F)C(F)(Br)C(F)(F)F (stereo not drawn) [3-bromo-2,3,4,4,4-pentafluorobutene] | 7.20 (cal/cm^3)^1/2 | 69.7 | 4.9 | 
C=CC(F)(F)Br [3-bromo-3,3-difluoro-1-propene] | 7.89 (cal/cm^3)^1/2 | 42.0 | 5.9 | 
C=C(C(F)(F)F)C(F)(F)Br [3-bromo-3,3-difluoro-2-(trifluoromethyl)-propene] | 7.24 (cal/cm^3)^1/2 | 49.7 | 15.0 | 
Fc1c(F)c(Br)c(F)c(C(F)(F)F)c1F [3-bromoheptafluorotoluene] | 7.66 (cal/cm^3)^1/2 | 153.0 | 21.1 | 

SMILES | SP [1] | BP [2] [C.] | CS/CS113 [3, 4] | CS/CS113 [3]
FC(=C(C(F)(F)F)C(F)(F)F)C(F)(F)Br [4-bromo-1,1,1,3,4,4-hexafluoro-2-(trifluoromethyl)-2-butene] | 6.51 (cal/cm^3)^1/2 | 68.1 | 103.2 | 
FC(F)(Br)C=C(C(F)(F)F)C(F)(F)F [4-bromo-1,1,1,4,4-pentafluoro-2-(trifluoromethyl)-2-butene] | 6.74 (cal/cm^3)^1/2 | 61.0 | 105.5 | 
FC(F)=C(F)C(F)(F)C(F)(F)Br [4-bromo-1,1,2,3,3,4,4-heptafluorobutene] | 6.78 (cal/cm^3)^1/2 | 51.5 | 23.4 | 
FC(F)=C(F)C(F)(F)CBr [4-bromo-1,1,2,3,3-pentafluorobutene] | 7.79 (cal/cm^3)^1/2 | 80.4 | 25.3 | 
C=C(F)C(F)(F)C(F)(F)Br [4-bromo-2,3,3,4,4-pentafluorobutene] | 7.21 (cal/cm^3)^1/2 | 69.2 | 6.0 | 
C=CC(F)(F)C(F)(F)Br [4-bromo-3,3,4,4-tetrafluoro-1-butene] | 7.44 (cal/cm^3)^1/2 | 55.0 | 5.8 | 
C=CC(F)(Cl)C(F)(F)Br (stereo not drawn) [4-bromo-3-chloro-3,4,4-trifluoro-1-butene] | 7.76 (cal/cm^3)^1/2 | 99.7 | 0.8 | 
Fc1c(F)c(C(F)(F)F)c(F)c(F)c1Br [4-bromoheptafluorotoluene] | 7.66 (cal/cm^3)^1/2 | 151.3 | 37.9 | 
FC(F)(F)COCC(F)(F)Br [(2,2,2-trifluoroethyl)(2-bromo-2,2-difluoroethyl)ether] | 7.64 (cal/cm^3)^1/2 | 73.0 | 52.1 | 
F/C(OC(F)(F)Br)=C(/F)C(F)(F)F [(E)-1-(bromodifluoromethoxy)-1,2,3,3,3-pentafluoro-1-propene] | 7.25 (cal/cm^3)^1/2 | 65.2 | 70.1 | 
FC(F)(F)O/C=C/OC(F)(F)Br [(E)-1-(bromodifluoromethoxy)-2-(trifluoromethoxy)ethene] | 7.79 (cal/cm^3)^1/2 | 76.5 | 144.9 | 
FC(F)(F)/C=C/OC(F)(F)Br [(E)-1-(bromodifluoromethoxy)-2-(trifluoromethyl)ethene] | 7.73 (cal/cm^3)^1/2 | 57.8 | 54.3 | 
FC(F)(F)/C=C/C(F)(F)Br [(E)-1-bromo-1,1,4,4,4-pentafluoro-2-butene] | 7.37 (cal/cm^3)^1/2 | 40.0 | 36.6 | 
F/C(=C(/F)C(F)(F)Br)C(F)(F)F [(E)-1-bromo-perfluoro-2-butene] | 6.85 (cal/cm^3)^1/2 | 48.0 | 41.4 | 
FC(F)(F)/C(Cl)=C(\Cl)C(F)(F)F [(E)-2,3-dichlorohexafluoro-2-butene] | 7.15 (cal/cm^3)^1/2 | 68.5 | 72.4 | 
F/C(=C(/Br)C(F)(F)F)C(F)(F)F [(E)-2-bromo-1,1,1,3,4,4,4-heptafluoro-2-butene] | 6.82 (cal/cm^3)^1/2 | 49.0 | 48.6 | 
FC(F)(F)/C=C(/Br)C(F)(F)F [(E)-2-bromo-1,1,1,4,4,4-hexafluoro-2-butene] | 7.06 (cal/cm^3)^1/2 | 45.1 | 42.7 | 
F/C(OC(F)(F)Br)=C(\F)C(F)(F)F [(Z)-1-(bromodifluoromethoxy)-1,2,3,3,3-pentafluoro-1-propene] | 7.22 (cal/cm^3)^1/2 | 65.2 | 70.1 | 
